Patent US20190359989A1, “FUSION PROTEIN AND APPLICATIONS THEREOF” (CARSGEN THERAPEUTICS CO., LTD., priority 2016, published 2019)
Where a SMILES comes first, the peptide text is derived from it. [ ]: non-standard residue; d: D form. Dolaproine = CO[C@@H]([C@@H]1CCCN1)[C@@H](C)C(=O)O; Dil = CC[C@H](C)[C@H](NC)[C@@H](CC(=O)O)OC; NMeV = CN[C@H](C(=O)O)C(C)C

Legend:
FR806-negative HEK293T = assay: Cell killing experiment on FR806-negative EGFR+ HEK293T cells; format: cell-based
FR806-positive T cells = assay: CCK8 assay for killing FR806-expressing T cells; format: cell-based, human; details: CCK8, 72 h, 10-1000 nM
Experimental: Experimental group: T cells expressing eGFP-FR806 after sorted in Example 3 were plated in a 96-well plate at 3×10^4 cells per well in 100 ul of medium, 5 replicate wells per drug concentration, and then a blank group of medium was set. Control group: T cells that were not infected with the virus were taken and plated in a 96-well plate according to the operation of the experimental group. […] After 72 h, 10 ul of CCK8 reagent (Dojindo) was added to each well and incubated at 37° C. for 3 h, and the absorbance was measured at 450 nm by a microplate reader to calculate the cell viability.
According to the above procedure, the sorted T cells infected with eGFP-FR806 were taken and plated in a 96-well plate at 3×10^4 cells per well in 100 ul of culture medium, 5 replicate wells per drug concentration, and then a blank group of medium was set. The control group was uninfected T cells, which were plated in a 96-well plate by the same method. Six concentrations of free MMAFs of 1000 nM, 500 nM, 100 nM, 50 nM, 10 nM and 0 nM were added to T cells at specific concentrations to prepare six gradients (i.e., the aforementioned six concentrations). After 72 h, 10 ul of CCK8 reagent (Dojindo) was added to each well for 3 h at 37° C., and the absorbance was measured at 450 nm by a microplate reader to calculate the cell viability. […]

FR806-positive HEK293T = assay: Cell killing experiment on EGFR+ HEK293T cells expressing FR806; format: cell-based
Source text: Moreover, the applicant selected EGFR+ HEK293T cells expressing FR806, and subjected them to cell killing experiments.

[1] = target: T1, EGFR on Keratinocyte cells and HEK-293T cells (human, UniProt P00533 25-1210); assay: FACS on Keratinocyte cells and HEK-293T cells expressing EGFR
T1 construct: whole, on cells; also called epidermal growth factor receptor

Molecule | killing of FR806-negative HEK293T (FR806-negative HEK293T) | killing levels to T cells expressing and not expressing FR806 (FR806-positive T cells) | killing of FR806-positive HEK293T (FR806-positive HEK293T) | binding result [1]
CC[C@H](C)[C@@H]([C@@H](CC(=O)N1CCC[C@H]1[C@H](OC)[C@@H](C)C(=O)N[C@@H](Cc1ccccc1)C(=O)O)OC)N(C)C(=O)[C@@H](NC(=O)[C@@H](NC)C(C)C)C(C)C [Free MMAF, MMAF] (H-[NMeV]V[Dil][Dolaproine]F-OH) | killed | comparable | killed | –
CH12 antibody (antibody, human IgG1, kappa, V domains shown, CH12 antibody as disclosed in CN 200810038848.8; detected with goat anti-human IgG) VH: DVQLQESGPGLVKPSQSLSLTCTVTAYSVTSDYAWNWIRQFPGNKLEWMGYISYSGTTRYNPSLKSRISITRDTSKNQFFLQLNSMTAEDTATYYCSRQGRGFPYWGQGTLVTVSA VL: DILMTQSPSSMSVSLGDTVSITCHASQDINSNIGWLQQKPGKSFKGLIYHGTNLEDGVPSRFSGSGSGADYSLTISSLESEDFADYYCVQYAQFPWTFGGGTKLEIKR | – | – | – | no binding
